What is called IC50 is the concentration that gives 50% inhibition.

These results are taken from patent US11648258B2, “Method and compounds for inhibiting the MCM complex and their application in cancer treatment” (priority 2012, dated 2023).

The subject of assay [1] is HepG2 cells (hepatocellular carcinoma). The settings on record: HepG2, 48 hrs.
For assay [2], the target named is T1, hMcm2-hMcm6 interaction (MCM complex) (Homo sapiens, UniProt P49736+Q14566).
T1 construct: endogenous in cells; host or cells: HeLa
T1 sequence (P49736 2-904 limits assumed): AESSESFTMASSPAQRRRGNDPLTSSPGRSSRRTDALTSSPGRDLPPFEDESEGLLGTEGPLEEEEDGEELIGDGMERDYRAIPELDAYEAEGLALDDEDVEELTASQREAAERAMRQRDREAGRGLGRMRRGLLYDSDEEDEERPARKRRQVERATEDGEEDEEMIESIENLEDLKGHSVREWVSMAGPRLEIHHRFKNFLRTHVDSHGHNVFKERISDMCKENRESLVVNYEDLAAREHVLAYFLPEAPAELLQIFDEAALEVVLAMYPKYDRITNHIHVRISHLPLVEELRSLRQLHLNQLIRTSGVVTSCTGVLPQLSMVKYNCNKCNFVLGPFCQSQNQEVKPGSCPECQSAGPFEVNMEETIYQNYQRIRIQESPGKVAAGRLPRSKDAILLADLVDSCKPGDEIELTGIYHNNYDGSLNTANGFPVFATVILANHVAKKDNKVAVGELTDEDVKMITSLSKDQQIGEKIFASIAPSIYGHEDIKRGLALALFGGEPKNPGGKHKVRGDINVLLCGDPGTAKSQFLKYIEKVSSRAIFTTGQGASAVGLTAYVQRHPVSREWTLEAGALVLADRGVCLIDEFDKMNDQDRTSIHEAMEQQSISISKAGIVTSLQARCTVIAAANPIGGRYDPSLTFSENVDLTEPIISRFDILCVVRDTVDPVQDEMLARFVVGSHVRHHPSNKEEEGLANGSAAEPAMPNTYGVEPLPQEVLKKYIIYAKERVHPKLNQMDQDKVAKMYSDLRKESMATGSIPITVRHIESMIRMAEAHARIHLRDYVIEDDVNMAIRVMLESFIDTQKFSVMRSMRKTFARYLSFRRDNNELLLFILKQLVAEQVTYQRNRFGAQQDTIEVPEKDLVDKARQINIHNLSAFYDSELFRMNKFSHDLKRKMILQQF
T1 sequence (Q14566 whole entry): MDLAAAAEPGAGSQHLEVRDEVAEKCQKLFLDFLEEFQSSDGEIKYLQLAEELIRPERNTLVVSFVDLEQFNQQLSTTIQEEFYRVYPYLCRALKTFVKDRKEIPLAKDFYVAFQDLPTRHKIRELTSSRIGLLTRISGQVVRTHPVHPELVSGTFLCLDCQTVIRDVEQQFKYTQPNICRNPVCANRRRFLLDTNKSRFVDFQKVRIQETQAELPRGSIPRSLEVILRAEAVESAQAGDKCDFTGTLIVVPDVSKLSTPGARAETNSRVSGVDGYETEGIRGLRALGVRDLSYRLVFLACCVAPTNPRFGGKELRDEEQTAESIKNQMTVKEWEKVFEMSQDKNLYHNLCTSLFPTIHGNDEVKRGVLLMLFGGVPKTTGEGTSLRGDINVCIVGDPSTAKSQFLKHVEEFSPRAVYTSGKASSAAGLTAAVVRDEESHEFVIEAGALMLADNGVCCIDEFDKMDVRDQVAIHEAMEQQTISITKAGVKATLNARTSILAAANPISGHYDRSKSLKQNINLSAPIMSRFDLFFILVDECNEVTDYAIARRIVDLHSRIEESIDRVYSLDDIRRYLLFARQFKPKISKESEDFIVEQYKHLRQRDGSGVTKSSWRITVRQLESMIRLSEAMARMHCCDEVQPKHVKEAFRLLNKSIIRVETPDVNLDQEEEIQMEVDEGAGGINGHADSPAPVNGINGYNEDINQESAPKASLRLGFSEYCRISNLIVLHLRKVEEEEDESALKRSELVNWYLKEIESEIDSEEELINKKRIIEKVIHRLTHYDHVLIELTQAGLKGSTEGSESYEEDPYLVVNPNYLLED
As to the kind of experiment: Co-immunoprecipitation of MCM subunits in HeLa cell extracts. It is filed as cell-based. The settings on record: asynchronous HeLa cells, whole cell extracts. On the procedure:
To test if 17beta-Deacetyltanghinin targets hMcm2 and hMcm6 proteins in human cells, possible co-immunoprecipitation (co-IP) of the two proteins was tested in human cell extracts from cells treated with 17beta-Deacetyltanghinin. In FIG. 3, asynchronous HeLa cells were treated with DMSO or 17beta-Deacetyltanghinin (DAT) (FIG. 3A), or with DMSO, 17beta-Neriifolin (NRF) or 17beta-Deacetyltanghinin diol (Diol) (FIG. 3B), and whole cell extracts were prepared and further incubated with the compound before being used for co-IP in the presence of the compound. The immunoprecipitates were then immunoblotted with anti-hMcm 6, anti-hMcm2, anti-hMcm4 and anti-hMcm7 antibodies.

For another assay, the system named is HeLa cells. As to the kind of experiment: BrdU incorporation assay (DNA replication) in HeLa cells. It is filed as cell-based, human. How it is done: Hela cells grown on cover slips coated with poly-D-lysine were incubated with 50 μM BrdU (Sigma) for 1 hr at 37° C. after 24 hrs of 17beta-Deacetyltanghinin treatment. Cells were then fixed in with 4% of PFA in PBS at room temperature for 20 min, permeabilized with 0.1% Triton X-100 and 1% BSA in PBS for 20 min, and then incubated sequentially with anti-BrdU (Sigma Chemical Company; 1:500) and anti-mouse IgG-FITC conjugates (Sigma Chemical Company; 1:500), each for 1 hr at 37° C., with three washes in PBS after each antibody incubation. BrdU signal was observed under the fluorescence microscope (Nikon TE2000E).
As 17beta-Deacetyltanghinin disrupts the interactions between hMcm2 and hMcm6 and inhibits the association of MCM proteins with chromatin, 17beta-Deacetyltanghinin should block DNA replication. To confirm this, we treated HeLa cells with 17beta-Deacetyltanghinin for 24 hrs and then labeled them with BrdU for 1 hr. Incorporated BrdU in the cellular DNA was detected by an anti-BrdU antibody followed by FITC-anti-mouse secondary antibodies which was visualized under the fluorescence microscope (FIG. 6A). DAPI was used to stain the nuclei (FIG. 6A), and the percentage of BrdU positive cells was quantified (FIG. 6B). […]
For orientation: Incorporation of labelled thymidine or its analogues reports DNA synthesis.

The next assay has as its system L-02 cells. In words: Flow cytometry (cell cycle) in normal L-02 cells. It is filed as cell-based, human. To be noted: 24 hrs. How it is done:
Both floating and attached cells were collected and washed once with PBS. Cells were fixed in 70% ethanol for 1 hr to overnight at −20° C., washed thoroughly with PBS, and then stained in 50 μg/ml RNase A, 0.1% Triton X-100, 0.1 mM EDTA (pH 7.4), and 50 μg/ml propidium iodide for 30 min at 4° C. Samples were analyzed with the FACSort instrument (Becton Dickinson).
In FIG. 8A, flow cytometry was performed to analyze the DNA contents in HepG2 and L-02 cells treated with 17beta-Deacetyltanghinin at various concentrations for 24 hrs. In FIG. 8B, Hela cells were treated with 17beta-Deacetyltanghinin for 24 hrs and labeled with Annexin V-Cy3 (Arm. Cy3) for 20 min. Mitoxantrone (MTX), a clinical anticancer drug that can induce apoptosis in cancer cells, was used as a positive control.

The test system of assay [3] is cancer cell lines (HepG2, Hep3B, HeLa, HK1, C666-1). As to the kind of experiment: cells. To be noted: for IC50: Homo sapiens, 48 hrs treatment, WST-1, average over cancer cell lines. It is filed as cell-based, human. How it is done:
For testing the anti-proliferation activity of the compounds in human cell lines and calculation of IC50, cancer cells including HepG2, HeLa and Hep3B (4×10^5 cells/well) and normal L-02 cells (5×10^5 cells/well) were respectively seeded in 96-well plates in 100 μl of culture medium and incubated for about 12 hrs at 37° C. The cells were treated with two-fold serial dilutions of the drugs for 48 hrs. Medium was removed and 100 μl of culture medium containing 1 μM WST-1 (water soluble tetrazolium-1) were added to each well. The cells were incubated for 2 hrs, and absorbance at 405 nm (reference at 630 nm) was then measured. To construct the standard curve of the relationship between cell number and absorbance at OD405, serial dilutions of cells with known cell numbers were seeded and incubated for six hrs before being measured by the WST-1 assay. The cell viability was expressed as the ratio of the number of live cells treated with a candidate compound versus that of the DMSO-treated cells.
To further test 17beta-Deacetyltanghinin and to determine the IC50 values, besides L-02 and HepG2, Hep3B (another liver cancer cell line which is p53-negative), HeLa (cervical cancer cell line), HK1 and C666-1 (nasopharyngeal carcinoma) cells and a hTert-immortalized normal nasopharyngeal cell line (NP460) were treated by 17beta-Deacetyltanghinin for 48 hrs, and the relative cell vabilities were determined by WST-1 assay (FIG. 2B, C).
For orientation: Tetrazolium assays rely on reduction of a dye to a coloured formazan, in cell work by metabolically active cells.

Consider `COC1C(O)[C@H](O[C@H]2CC[C@]3(C)C4CC[C@]5(C)[C@@H](C6=CC(=O)OC6)CC[C@]5(O)[C@@]45O[C@H]5C[C@@H]3C2)OC(C)[C@@H]1O` (stereo partly drawn) [17beta-Deacetyltanghinin, 3β-O-(3-O-methyl-6-deoxy-α-L-glucopyranosyl)-7β,8β-epoxy-14β-hydroxy-card-20(22)-enolide], for which, in assay [1], the “inhibition of proliferation, direct microscopy of cell density and morphology” value is listed as “efficiently inhibit the proliferation”. Moreover, the “disruption of hMcm2-hMcm6 interaction (co-IP)” value in assay [2] was “disrupted the interaction between hMcm2 and hMcm6”. Moreover, the BrdU positive cells with HeLa cells (HeLa cells arrested with Mimosine, 12 hrs pre-treatment, released in presence of compound, controls ~100%) is given as approximately 40%. Also, in the assay with HeLa cells (asynchronous HeLa cells, 24 hrs, above 0.2 ∝g/ml), the “BrdU signal (DNA replication)” value is on record as “almost no BrdU signal”. The “cell cycle effect in normal cells” value in the assay on L-02 cells is “mostly arrested in G1 phase”. For the same molecule, the half-inhibitory concentration (IC50) is approximately 0.1 µg/mL in assay [3] and approximately 200 nM in assay [3] (printed in brackets). Besides, the “anti-proliferative (anticancer) activity, in words” value in assay [3] (WST-1 assay, 48 hrs) is “significantly inhibited”.
